Data reported in US12252524B2, “GIP/GLP1 co-agonist compounds” (Eli Lilly and Company, priority 2018, dated 2025).
Numbered stars: 1 amine (or outer) side, 2 acyl side, 3 side chain; on linkers, the order of the positions; unused ones are H or OH. Square brackets hold non-standard residues; d marks the D form. Side chains are listed from the residue outwards. Peptide text beside a SMILES is read from it. * marks the point of attachment. C20 diacid = O=C(O)CCCCCCCCCCCCCCCCCCC(=O)*; C18 diacid = O=C(O)CCCCCCCCCCCCCCCCC(=O)*; αMePhe(2-F) = C[C@](N)(Cc1ccccc1F)C(=O)O; γGlu = O=C(O)[C@H](CCC(=O)[*:2])N[*:1]; αMeL = CC(C)C[C@](C)(N)C(=O)O; AEEA = NCCOCCOCC(=O)O; Aib = CC(C)(N)C(=O)O

Key:
[1] = target: T1, human Gcg receptor (Homo sapiens, UniProt P47871); test: [125I]-Glucagon binding (SPA), human Gcg receptor; conditions: read-out: hGLcgR Ki, nM (SEM, n)
T1 construct: expressed in transfected cells; crude membranes
T1 sequence (P47871 26-477): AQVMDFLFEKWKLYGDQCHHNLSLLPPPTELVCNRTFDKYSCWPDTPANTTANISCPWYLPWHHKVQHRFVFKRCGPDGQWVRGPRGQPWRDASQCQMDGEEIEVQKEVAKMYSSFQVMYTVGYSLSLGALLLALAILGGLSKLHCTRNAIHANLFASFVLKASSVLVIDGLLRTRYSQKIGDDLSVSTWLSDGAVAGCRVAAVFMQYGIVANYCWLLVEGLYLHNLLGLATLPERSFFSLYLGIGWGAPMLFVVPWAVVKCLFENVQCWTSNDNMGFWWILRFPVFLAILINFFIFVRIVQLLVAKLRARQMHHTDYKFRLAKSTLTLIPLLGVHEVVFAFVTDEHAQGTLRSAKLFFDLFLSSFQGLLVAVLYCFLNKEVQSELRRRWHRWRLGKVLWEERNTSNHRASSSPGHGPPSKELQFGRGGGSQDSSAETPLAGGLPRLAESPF
Outline: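 Crude membranes from cells expressing the receptor, prepared by hypotonic lysis in 50 mM Tris HCl pH 7.5 with protease inhibitors, homogenization and differential centrifugation, were used in a WGA-bead SPA. Binding buffer: 25 mM HEPES pH 7.4, 2.5 mM CaCl2, 1 mM MgCl2, bacitracin, Tween-20.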

[2] = target: T2, human GIP receptor (Homo sapiens, UniProt P48546); test: [125I]-GIP binding (SPA), human GIP receptor; conditions: read-out: hGIPR Ki, nM (SEM, n)
T2 construct: expressed in transfected cells; crude membranes
T2 sequence (P48546 22-466): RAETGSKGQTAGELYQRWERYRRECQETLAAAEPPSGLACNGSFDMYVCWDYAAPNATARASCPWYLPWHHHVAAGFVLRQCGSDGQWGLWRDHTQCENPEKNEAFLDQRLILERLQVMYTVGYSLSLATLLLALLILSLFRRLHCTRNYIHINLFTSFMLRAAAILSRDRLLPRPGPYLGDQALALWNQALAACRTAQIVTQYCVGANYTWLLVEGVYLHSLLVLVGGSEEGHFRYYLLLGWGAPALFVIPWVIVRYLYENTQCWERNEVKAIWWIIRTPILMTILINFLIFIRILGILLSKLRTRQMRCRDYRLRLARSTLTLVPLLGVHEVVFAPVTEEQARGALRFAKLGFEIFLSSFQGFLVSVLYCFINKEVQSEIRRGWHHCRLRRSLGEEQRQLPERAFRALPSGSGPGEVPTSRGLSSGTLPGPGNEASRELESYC

[3] = target: human GLP-1 receptor (GLP-1R) (Homo sapiens, UniProt P43220); test: cAMP pharmacological functional assay in presence of casein, hGLP-1R; format: cell-based; conditions: HEK293 cells expressing hGLP-1R, 0.1% Casein, geometric mean; read-out: hGLP1R cAMP Rel EC50 nM (SEM, n)
Chain of human GLP-1 receptor (GLP-1R) (P43220 24-463): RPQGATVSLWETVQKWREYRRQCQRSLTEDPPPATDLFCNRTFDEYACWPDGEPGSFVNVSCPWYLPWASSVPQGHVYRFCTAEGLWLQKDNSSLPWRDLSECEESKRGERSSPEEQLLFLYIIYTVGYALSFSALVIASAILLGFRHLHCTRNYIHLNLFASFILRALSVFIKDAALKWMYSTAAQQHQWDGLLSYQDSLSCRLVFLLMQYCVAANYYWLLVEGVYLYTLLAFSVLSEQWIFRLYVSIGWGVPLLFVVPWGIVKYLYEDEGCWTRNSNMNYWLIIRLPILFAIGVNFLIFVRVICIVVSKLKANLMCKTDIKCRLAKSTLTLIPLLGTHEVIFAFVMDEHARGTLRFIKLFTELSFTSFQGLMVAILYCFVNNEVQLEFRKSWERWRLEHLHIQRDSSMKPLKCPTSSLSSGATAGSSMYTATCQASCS

[4] = target: T3, gastric inhibitory peptide receptor (GIPR) (Homo sapiens, UniProt P48546); test: cAMP pharmacological functional assay in presence of casein, hGIPR; format: cell-based; conditions: HEK293 cells expressing hGIPR, 0.1% Casein, geometric mean; read-out: hGIPR cAMP Rel EC50 nM (SEM, n)
T3 sequence (P48546 22-466): T2 sequence (P48546 22-466)

[5] = target: human GLP-1R (Homo sapiens, UniProt P43220); test: [125I]-GLP-1 binding (SPA), human GLP-1 receptor; set-up: expressed in transfected cells; crude membranes; conditions: read-out: hGLP1R Ki, (nM) (SEM, n)
Chain of human GLP-1R (P43220 24-463): as above
Outline: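 Ki values are geometric means with SEM over independent replicates on different days, derived from IC50s fitted by four-parameter nonlinear regression. The assay used crude cell membranes in HEPES buffer, pH 7.4, containing CaCl2, MgCl2, bacitracin and TWEEN-20.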

Compound: CC[C@H](C)[C@H](NC(=O)[C@H](CC(C)C)NC(=O)[C@H](Cc1ccc(O)cc1)NC(=O)[C@@H](CCC(=O)O)NC(=O)[C@@H](NC(=O)[C@H](Cc1ccccc1)NC(=O)[C@H](CCC(=O)O)NC(=O)C(C)(C)NC(=O)[C@H](CCC(N)=O)NC(=O)[C@H](C)NC(=O)[C@H](CCCCNC(=O)COCCOCCNC(=O)COCCOCCNC(=O)CC[C@H](NC(=O)CCCCCCCCCCCCCCCCCCC(=O)O)C(=O)O)NC(=O)[C@H](CCC(=O)O)NC(=O)[C@H](CC(=O)O)NC(=O)[C@H](CC(C)C)NC(=O)[C@H](CC(C)C)NC(=O)[C@@H](NC(=O)[C@H](CO)NC(=O)[C@H](Cc1ccc(O)cc1)NC(=O)[C@H](CC(=O)O)NC(=O)[C@H](CO)NC(=O)[C@@H](NC(=O)[C@](C)(Cc1ccccc1F)NC(=O)[C@@H](NC(=O)CNC(=O)[C@H](CCC(=O)O)NC(=O)C(C)(C)NC(=O)[C@@H](N)Cc1ccc(O)cc1)[C@@H](C)O)[C@@H](C)O)[C@@H](C)CC)[C@@H](C)CC)C(=O)N[C@@H](CCC(=O)O)C(=O)NCC(=O)NCC(=O)N1CCC[C@H]1C(=O)N[C@@H](CO)C(=O)N[C@@H](CO)C(=O)NCC(=O)N[C@@H](C)C(=O)N1CCC[C@H]1C(=O)N1CCC[C@H]1C(=O)N1CCC[C@H]1C(=O)N[C@@H](CO)C(N)=O [Example 226] (H-Y[Aib]EGT[αMePhe(2-F)]TSDYSILLDEK([AEEA-AEEA-γGlu-C20 diacid])AQ[Aib]EFI[dE]YLIEGGPSSGAPPPS-NH2)
- Ki [1]: 200 nM
- Ki [2]: 0.0254 nM
- EC50 [3]: 0.0284 nM
- EC50 [4]: 0.0461 nM
- Ki [5]: 4.1 nM

Compound: CC[C@H](C)[C@H](NC(=O)[C@H](CC(C)C)NC(=O)[C@H](Cc1ccc(O)cc1)NC(=O)[C@H](CCC(=O)O)NC(=O)[C@@H](NC(=O)[C@H](Cc1ccccc1)NC(=O)[C@H](C)NC(=O)[C@H](Cc1c[nH]cn1)NC(=O)[C@H](CCC(N)=O)NC(=O)[C@H](C)NC(=O)[C@H](CCCCNC(=O)COCCOCCNC(=O)COCCOCCNC(=O)CC[C@H](NC(=O)CCCCCCCCCCCCCCCCCCC(=O)O)C(=O)O)NC(=O)[C@H](CCCCN)NC(=O)[C@H](CC(=O)O)NC(=O)[C@H](CC(C)C)NC(=O)[C@H](CC(C)C)NC(=O)[C@@H](NC(=O)[C@H](CO)NC(=O)[C@H](Cc1ccc(O)cc1)NC(=O)[C@H](CC(=O)O)NC(=O)[C@H](CO)NC(=O)[C@@H](NC(=O)[C@H](Cc1ccccc1)NC(=O)[C@@H](NC(=O)CNC(=O)[C@H](CCC(=O)O)NC(=O)C(C)(C)NC(=O)[C@@H](N)Cc1ccc(O)cc1)[C@@H](C)O)[C@@H](C)O)[C@@H](C)CC)[C@@H](C)CC)C(=O)N[C@@H](CCC(=O)O)C(=O)NCC(=O)NCC(=O)N1CCC[C@H]1C(=O)N[C@@H](CO)C(=O)N[C@@H](CO)C(=O)NCC(=O)N[C@@H](C)C(=O)N1CCC[C@H]1C(=O)N1CCC[C@H]1C(=O)N1CCC[C@H]1C(=O)N[C@@H](CO)C(N)=O [Example 255] (H-Y[Aib]EGTFTSDYSILLDKK([AEEA-AEEA-γGlu-C20 diacid])AQHAFIEYLIEGGPSSGAPPPS-NH2; N-terminus assumed)
- Ki [1]: 257 nM
- Ki [2]: 0.0772 nM
- EC50 [3]: 0.0407 nM
- EC50 [4]: 0.102 nM
- Ki [5]: 2.58 nM

Compound: CC[C@H](C)[C@H](NC(=O)[C@H](CCCCN)NC(=O)[C@H](CC(=O)O)NC(=O)[C@H](CC(C)C)NC(=O)[C@H](CC(C)C)NC(=O)[C@@H](NC(=O)[C@H](CO)NC(=O)[C@H](Cc1ccc(O)cc1)NC(=O)[C@H](CC(=O)O)NC(=O)[C@H](CO)NC(=O)[C@@H](NC(=O)[C@H](Cc1ccccc1)NC(=O)[C@@H](NC(=O)CNC(=O)[C@H](CCC(=O)O)NC(=O)C(C)(C)NC(=O)[C@@H](N)Cc1ccc(O)cc1)[C@@H](C)O)[C@@H](C)O)[C@@H](C)CC)C(=O)N[C@@H](C)C(=O)N[C@@H](CCC(N)=O)C(=O)NC(C)(C)C(=O)N[C@@H](C)C(=O)N[C@@H](Cc1ccccc1)C(=O)N[C@H](C(=O)N[C@@H](CCC(=O)O)C(=O)N[C@@H](Cc1ccc(O)cc1)C(=O)N[C@@H](CC(C)C)C(=O)N[C@H](C(=O)N[C@@H](CCC(=O)O)C(=O)NCC(=O)NCC(=O)N1CCC[C@H]1C(=O)N[C@@H](CO)C(=O)N[C@@H](CO)C(=O)NCC(=O)N[C@@H](C)C(=O)N1CCC[C@H]1C(=O)N1CCC[C@H]1C(=O)N1CCC[C@H]1C(=O)N[C@@H](CO)C(=O)N[C@@H](CCCCNC(=O)COCCOCCNC(=O)COCCOCCNC(=O)CC[C@H](NC(=O)CCCCCCCCCCCCCCCCCCC(=O)O)C(=O)O)C(N)=O)[C@@H](C)CC)[C@@H](C)CC [Example 49] (H-Y[Aib]EGTFTSDYSILLDKIAQ[Aib]AFIEYLIEGGPSSGAPPPSK([AEEA-AEEA-γGlu-C20 diacid])-NH2; N-terminus assumed)
- Ki [1]: 236 nM
- Ki [2]: 0.087 nM
- EC50 [3]: 0.597 nM
- EC50 [4]: 0.0868 nM
- Ki [5]: 12.3 nM

Compound: CC[C@H](C)[C@H](NC(=O)[C@H](CC(C)C)NC(=O)[C@H](Cc1ccc(O)cc1)NC(=O)[C@@H](CCC(=O)O)NC(=O)[C@@H](NC(=O)[C@H](Cc1ccccc1)NC(=O)[C@H](CCC(=O)O)NC(=O)C(C)(C)NC(=O)[C@H](CCC(N)=O)NC(=O)[C@H](C)NC(=O)[C@H](CCCCNC(=O)COCCOCCNC(=O)COCCOCCNC(=O)CC[C@H](NC(=O)CCCCCCCCCCCCCCCCC(=O)O)C(=O)O)NC(=O)[C@H](CCC(=O)O)NC(=O)[C@H](CC(=O)O)NC(=O)[C@H](CC(C)C)NC(=O)[C@](C)(CC(C)C)NC(=O)[C@@H](NC(=O)[C@H](CO)NC(=O)[C@H](Cc1ccc(O)cc1)NC(=O)[C@H](CC(=O)O)NC(=O)[C@H](CO)NC(=O)[C@@H](NC(=O)[C@](C)(Cc1ccccc1F)NC(=O)[C@@H](NC(=O)CNC(=O)[C@H](CCC(=O)O)NC(=O)C(C)(C)NC(=O)[C@@H](N)Cc1ccc(O)cc1)[C@@H](C)O)[C@@H](C)O)[C@@H](C)CC)[C@@H](C)CC)C(=O)N[C@@H](CCC(=O)O)C(=O)NCC(=O)NCC(=O)N1CCC[C@H]1C(=O)N[C@@H](CO)C(=O)N[C@@H](CO)C(=O)NCC(=O)N[C@@H](C)C(=O)N1CCC[C@H]1C(=O)N1CCC[C@H]1C(=O)N1CCC[C@H]1C(=O)N[C@@H](CO)C(N)=O [Example 221] (H-Y[Aib]EGT[αMePhe(2-F)]TSDYSI[αMeL]LDEK([AEEA-AEEA-γGlu-C18 diacid])AQ[Aib]EFI[dE]YLIEGGPSSGAPPPS-NH2)
- Ki [1]: 154 nM
- Ki [2]: 0.0414 nM
- EC50 [3]: 0.057 nM
- EC50 [4]: 0.0445 nM
- Ki [5]: 1.77 nM

Compound: CC[C@H](C)[C@H](NC(=O)[C@H](Cc1ccccc1)NC(=O)[C@H](C)NC(=O)C(C)(C)NC(=O)[C@H](CCC(N)=O)NC(=O)[C@H](C)NC(=O)[C@H](CCCCNC(=O)COCCOCCNC(=O)COCCOCCNC(=O)CC[C@H](NC(=O)CCCCCCCCCCCCCCCCCCC(=O)O)C(=O)O)NC(=O)[C@H](CCCCN)NC(=O)[C@H](CC(=O)O)NC(=O)[C@H](CC(C)C)NC(=O)[C@H](CC(C)C)NC(=O)[C@@H](NC(=O)[C@H](CO)NC(=O)[C@H](Cc1ccc(O)cc1)NC(=O)[C@H](CC(=O)O)NC(=O)[C@H](CO)NC(=O)[C@@H](NC(=O)[C@H](Cc1ccccc1)NC(=O)[C@@H](NC(=O)CNC(=O)[C@H](CCC(=O)O)NC(=O)C(C)(C)NC(=O)[C@@H](N)Cc1ccc(O)cc1)[C@@H](C)O)[C@@H](C)O)[C@@H](C)CC)C(=O)N[C@@H](CCC(=O)O)C(=O)N[C@@H](Cc1ccc(O)cc1)C(=O)N[C@@H](CC(C)C)C(=O)N[C@@H](CC(C)C)C(=O)N[C@@H](CCC(=O)O)C(=O)NCC(=O)NCC(=O)N1CCC[C@H]1C(=O)N[C@@H](CO)C(=O)N[C@@H](CO)C(=O)NCC(=O)N[C@@H](C)C(=O)N1CCC[C@H]1C(=O)N1CCC[C@H]1C(=O)N1CCC[C@H]1C(=O)N[C@@H](CO)C(N)=O [Example 6] (H-Y[Aib]EGTFTSDYSILLDKK([AEEA-AEEA-γGlu-C20 diacid])AQ[Aib]AFIEYLLEGGPSSGAPPPS-NH2)
- Ki [1]: 55.8 nM
- Ki [2]: 0.0835 nM
- EC50 [3]: 0.374 nM
- EC50 [4]: 0.0899 nM
- Ki [5]: 6.71 nM
